# Laboratory results: patent publication US20240270821A1, “GIP/GLP1/GCG TRI-RECEPTOR AGONISTS AND USES THEREOF” (priority 2023, published 2024)
# Read-outs that look alike come from different tables or passages of the source. Starred links: 1 amine or outer side, 2 acyl side, 3 side chain; linkers in the order of their positions; H or OH if unused. Non-standard residues stand in square brackets, D forms with d. Residues, ends and D or L forms follow the SMILES beside them. Groups on a side chain read outwards from the residue. *: point of attachment. C18 diacid = O=C(O)CCCCCCCCCCCCCCCCC(=O)*; αMePhe(2-F) = C[C@](N)(Cc1ccccc1F)C(=O)O; γGlu = O=C(O)[C@H](CCC(=O)[*:2])N[*:1]; αMe4Pal = C[C@](N)(Cc1ccncc1)C(=O)O; αMeY = C[C@](N)(Cc1ccc(O)cc1)C(=O)O; 4Pal = N[C@@H](Cc1ccncc1)C(=O)O; αMeL = CC(C)C[C@](C)(N)C(=O)O; αMeS = C[C@](N)(CO)C(=O)O; Orn = NCCC[C@H](N)C(=O)O; AEEA = NCCOCCOCC(=O)O; Aib = CC(C)(N)C(=O)O
# Assays:
# Type in all cases: cell-based
# [1] = molecular target: T1, hGIPR (Homo sapiens, UniProt P48546); assay: Functional cAMP activity in the presence of 1% HSA; details: read-out: cAMP Rel EC50, hGIPR
# T1 sequence (P48546 22-466): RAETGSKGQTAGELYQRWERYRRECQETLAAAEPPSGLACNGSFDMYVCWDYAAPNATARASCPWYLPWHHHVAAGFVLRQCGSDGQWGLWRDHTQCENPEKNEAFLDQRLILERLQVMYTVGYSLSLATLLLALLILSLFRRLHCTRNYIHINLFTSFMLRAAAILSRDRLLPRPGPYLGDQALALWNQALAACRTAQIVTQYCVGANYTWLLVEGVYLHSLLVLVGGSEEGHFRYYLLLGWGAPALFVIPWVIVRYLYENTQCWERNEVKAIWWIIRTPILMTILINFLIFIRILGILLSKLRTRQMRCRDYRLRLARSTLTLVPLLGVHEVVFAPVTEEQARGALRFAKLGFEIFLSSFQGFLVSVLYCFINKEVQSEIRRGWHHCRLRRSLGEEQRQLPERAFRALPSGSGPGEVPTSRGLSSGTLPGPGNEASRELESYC
# [2] = molecular target: T2, hGLP-1R (Homo sapiens, UniProt P43220); assay: Functional cAMP activity in the presence of 1% HSA; details: read-out: cAMP Rel EC50, hGLP-1R
# [3] = molecular target: human GcgR (Homo sapiens, UniProt P47871); assay: Functional cAMP activity in the presence of 1% HSA; details: read-out: cAMP Rel EC50, hGcgR
# [4] = molecular target: T1, hGIPR; assay: Functional cAMP activation in the presence of 0.1% casein (no HSA); details: read-out: Relative cAMP EC50, hGIPR;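 on Relative cAMP EC50, hGIPR: intracellular cAMP rise after 30 min at 37 °C read by HTRF against a standard curve, scaled between buffer alone (0%) and top control ligand concentration (100%), four-parameter fit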;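 on Relative cAMP EC50, hGLP-1R: intracellular cAMP rise after 30 min at 37 °C read by HTRF, normalized between buffer only (0%) and maximal control ligand (100%), four-parameter variable-slope fit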;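 on Relative cAMP EC50, hGcgR: intracellular cAMP rise after 30 min at 37 °C, read by HTRF against a cAMP standard curve, scaled from buffer only (0%) to maximal control ligand response (100%)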
# [5] = molecular target: T2, hGLP-1R; assay: as above; details: read-out: Relative cAMP EC50, hGLP-1R
# [6] = molecular target: hGcgR (Homo sapiens, UniProt P47871); assay: as above; details: read-out: Relative cAMP EC50, hGcgR;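 further: intracellular cAMP rise after 30 min at 37 °C, read by HTRF against a cAMP standard curve, scaled from buffer only (0%) to maximal control ligand response (100%)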
# [7] = in the presence of 0.1% casein (no HSA), geometric mean
# T2 sequence (P43220 24-463): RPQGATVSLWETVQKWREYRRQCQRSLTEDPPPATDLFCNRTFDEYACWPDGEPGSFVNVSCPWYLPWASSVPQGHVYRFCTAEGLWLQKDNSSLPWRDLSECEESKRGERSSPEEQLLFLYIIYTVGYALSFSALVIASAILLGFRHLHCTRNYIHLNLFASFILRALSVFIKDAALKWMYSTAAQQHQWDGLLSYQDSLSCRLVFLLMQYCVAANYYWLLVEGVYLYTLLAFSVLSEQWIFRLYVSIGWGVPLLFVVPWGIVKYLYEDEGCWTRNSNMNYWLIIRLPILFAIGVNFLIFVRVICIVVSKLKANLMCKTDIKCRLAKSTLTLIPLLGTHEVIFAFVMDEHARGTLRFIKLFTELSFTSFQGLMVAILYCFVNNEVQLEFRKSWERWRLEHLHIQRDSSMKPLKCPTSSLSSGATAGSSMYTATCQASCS
# human GcgR, sequence (P47871 26-477): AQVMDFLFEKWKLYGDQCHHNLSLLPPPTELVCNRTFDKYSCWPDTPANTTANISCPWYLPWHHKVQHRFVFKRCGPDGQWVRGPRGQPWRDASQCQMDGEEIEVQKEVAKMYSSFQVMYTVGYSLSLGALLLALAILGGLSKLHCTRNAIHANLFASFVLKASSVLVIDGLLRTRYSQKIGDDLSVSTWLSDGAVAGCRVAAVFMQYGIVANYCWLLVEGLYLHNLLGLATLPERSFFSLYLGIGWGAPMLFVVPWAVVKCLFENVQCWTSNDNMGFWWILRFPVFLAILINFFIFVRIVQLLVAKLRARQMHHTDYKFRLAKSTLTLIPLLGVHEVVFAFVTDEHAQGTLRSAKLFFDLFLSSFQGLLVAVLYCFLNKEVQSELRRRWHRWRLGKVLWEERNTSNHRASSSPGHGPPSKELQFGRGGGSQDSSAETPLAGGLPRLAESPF
# hGcgR, sequence (P47871 26-477): as above
EC50 [1] [nM],EC50 [2] [nM],EC50 [3] [nM],EC50 [4] [nM],EC50 [5] [nM],EC50 [6] [nM],Compound,"EC50 [4, 7] [nM]","EC50 [5, 7] [nM]","EC50 [6, 7] [nM]"
23.5,160,409,–,–,–,H-Y[Aib]QGTFTSD[4Pal]S[Orn][αMeL]LD[Orn]K([γGlu-γGlu-C18 diacid])AQ[αMe4Pal]AFIEYLIAGGPSSGEPPPSGTE-NH2 [Example 984],0.232,2.07,4.5
53.8,41.1,431,0.225,0.815,3.62,CC[C@H](C)[C@H](NC(=O)[C@H](Cc1ccccc1)NC(=O)[C@H](CCCN)NC(=O)C(C)(C)NC(=O)[C@H](CCC(N)=O)NC(=O)[C@H](C)NC(=O)[C@H](CCCCNC(=O)CC[C@H](NC(=O)CC[C@H](NC(=O)CCCCCCCCCCCCCCCCC(=O)O)C(=O)O)C(=O)O)NC(=O)[C@H](CCCN)NC(=O)[C@H](CC(=O)O)NC(=O)[C@H](CC(C)C)NC(=O)[C@](C)(CC(C)C)NC(=O)[C@@H](NC(=O)[C@](C)(CO)NC(=O)[C@H](Cc1ccncc1)NC(=O)[C@H](CC(=O)O)NC(=O)[C@H](CO)NC(=O)[C@@H](NC(=O)[C@](C)(Cc1ccccc1F)NC(=O)[C@@H](NC(=O)CNC(=O)[C@H](CCC(N)=O)NC(=O)C(C)(C)NC(=O)[C@@H](N)Cc1ccc(O)cc1)[C@@H](C)O)[C@@H](C)O)[C@@H](C)CC)C(=O)N[C@H](CCC(=O)O)C(=O)N[C@@](C)(Cc1ccc(O)cc1)C(=O)N[C@@H](CC(C)C)C(=O)N[C@@H](CO)C(=O)N[C@@H](CCC(=O)O)C(=O)NCC(=O)NCC(=O)N1CCC[C@H]1C(=O)N[C@@H](CO)C(=O)N[C@@H](CO)C(=O)NCC(=O)N[C@@H](CCC(=O)O)C(=O)N1CCC[C@H]1C(=O)N1CCC[C@H]1C(=O)N1CCC[C@H]1C(=O)N[C@@H](CCC(=O)O)C(N)=O [Example 438] (H-Y[Aib]QGT[αMePhe(2-F)]TSD[4Pal][αMeS]I[αMeL]LD[Orn]K([γGlu-γGlu-C18 diacid])AQ[Aib][Orn]FI[dE][αMeY]LSEGGPSSGEPPPE-NH2),–,–,–
7.11,23.5,432,0.0905,0.314,5.98,CC[C@H](C)[C@H](NC(=O)[C@H](Cc1ccccc1)NC(=O)[C@H](C)NC(=O)C(C)(C)NC(=O)[C@H](CCC(N)=O)NC(=O)[C@H](C)NC(=O)[C@H](CCCCNC(=O)COCCOCCNC(=O)CC[C@H](NC(=O)CCCCCCCCCCCCCCCCC(=O)O)C(=O)O)NC(=O)[C@H](CCCN)NC(=O)[C@H](CC(=O)O)NC(=O)[C@H](CC(C)C)NC(=O)[C@](C)(CC(C)C)NC(=O)[C@@H](NC(=O)[C@](C)(CO)NC(=O)[C@H](Cc1ccncc1)NC(=O)[C@H](CC(=O)O)NC(=O)[C@H](CO)NC(=O)[C@@H](NC(=O)[C@](C)(Cc1ccccc1F)NC(=O)[C@@H](NC(=O)CNC(=O)[C@H](CCC(N)=O)NC(=O)C(C)(C)NC(=O)[C@@H](N)Cc1c[nH]cn1)[C@@H](C)O)[C@@H](C)O)[C@@H](C)CC)C(=O)N[C@H](CCC(=O)O)C(=O)N[C@@H](Cc1ccc(O)cc1)C(=O)N[C@@H](CC(C)C)C(=O)N[C@@H](CC(C)C)C(=O)N[C@@H](CCC(=O)O)C(=O)NCC(=O)NCC(=O)N1CCC[C@H]1C(=O)N[C@@H](CO)C(=O)N[C@@H](CO)C(=O)NCC(=O)N[C@@H](CCC(=O)O)C(=O)N1CCC[C@H]1C(=O)N[C@@H](CCC(=O)O)C(=O)N1CCC[C@H]1C(=O)N[C@@H](CCC(=O)O)C(N)=O [Example 479] (H-H[Aib]QGT[αMePhe(2-F)]TSD[4Pal][αMeS]I[αMeL]LD[Orn]K([AEEA-γGlu-C18 diacid])AQ[Aib]AFI[dE]YLLEGGPSSGEPEPE-NH2),–,–,–

# The next lines start with the compound.
Compound,EC50 [1] [nM],EC50 [2] [nM],EC50 [3] [nM],EC50 [4] [nM],EC50 [5] [nM],EC50 [6] [nM],"EC50 [4, 7] [nM]","EC50 [5, 7] [nM]","EC50 [6, 7] [nM]"
CC[C@H](C)[C@H](NC(=O)[C@H](Cc1ccccc1)NC(=O)[C@H](C)NC(=O)C(C)(C)NC(=O)[C@H](CCC(N)=O)NC(=O)[C@H](C)NC(=O)[C@H](CCCCNC(=O)COCCOCCNC(=O)CC[C@H](NC(=O)CCCCCCCCCCCCCCCCC(=O)O)C(=O)O)NC(=O)[C@H](CCCCN)NC(=O)[C@H](CC(=O)O)NC(=O)[C@H](CC(C)C)NC(=O)[C@](C)(CC(C)C)NC(=O)[C@@H](NC(=O)[C@H](CO)NC(=O)[C@H](Cc1ccc(O)cc1)NC(=O)[C@H](CC(=O)O)NC(=O)[C@H](CO)NC(=O)[C@@H](NC(=O)[C@](C)(Cc1ccccc1F)NC(=O)[C@@H](NC(=O)CNC(=O)[C@H](CCC(N)=O)NC(=O)C(C)(C)NC(=O)[C@@H](N)Cc1ccc(O)cc1)[C@@H](C)O)[C@@H](C)O)[C@@H](C)CC)C(=O)N[C@@H](CCC(=O)O)C(=O)N[C@@H](Cc1ccc(O)cc1)C(=O)N[C@@H](CC(C)C)C(=O)N[C@@H](CCC(=O)O)C(=O)N[C@@H](CCC(=O)O)C(=O)NCC(=O)NCC(=O)N1CCC[C@H]1C(=O)N[C@@H](CO)C(=O)N[C@@H](CO)C(=O)NCC(=O)N[C@@H](C)C(=O)N1CCC[C@H]1C(=O)N[C@@H](CCC(=O)O)C(=O)N1CCC[C@H]1C(=O)N[C@@H](CO)C(N)=O [Example 423] (H-Y[Aib]QGT[αMePhe(2-F)]TSDYSI[αMeL]LDKK([AEEA-γGlu-C18 diacid])AQ[Aib]AFIEYLEEGGPSSGAPEPS-NH2),3.07,28.7,319,0.0114,0.194,1.92,–,–,–
H-Y[Aib]QGT[αMePhe(2-F)]TSD[4Pal]SILLD[Orn]K([γGlu-γGlu-C18 diacid])AQ[Aib]AFIEYLEEGGPSSGAPPPSGTGE-NH2 [Example 514],10,82,1150,0.0744,0.623,6.68,–,–,–
H-Y[Aib]QGTFTSD[4Pal]SQ[αMeL]LDKK([γGlu-γGlu-C18 diacid])AQ[αMe4Pal]AFIEYLIAGGPSSGAPPPSGSEE-NH2 [Example 960],14.1,161,813,–,–,–,0.124,1.51,5.5
